In US20220323406A1, “METHODS AND COMPOSITIONS FOR DIFFERENTIATING STEM CELLS” (Massachusetts Institute of Technology, priority 2019, published 2022):

Columns and labels:
[1] = system: ENR+CD organoids (ISC to Paneth cell differentiation); assay: Primary screen: CCh-stimulated lysozyme secretion LYZ.S, 2.5-D 384-well ENR+CD organoid differentiation; type: cell-based, mouse; conditions: primary screen, FC relative to plate median
From the text: (§1) High-throughput screening.

[2] = system: ENR+CD organoids (ISC to Paneth cell differentiation); assay: Primary screen: basal (non-stimulated) lysozyme secretion LYZ.NS, 2.5-D 384-well ENR+CD organoid differentiation; type: cell-based, mouse; conditions: primary screen; for Dose.FC.LYZ.NS: FC relative to plate median; for Z.LYZ.NS: standard z score
From the text: as §1

ENR+CD organoids = assay: Primary screen: ATP (CellTiter-Glo 3D, CTG) cell number/viability, 2.5-D 384-well ENR+CD organoids; conditions: primary screen; for Dose.FC.CTG: FC relative to plate median; for Z.CTG: standard z score;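 as to all read-outs here: compounds given at plating and again on day 3 over a 6-day differentiation from ENR+CV stem-cell-enriched precursors, ATP measured on day 6, plate median as control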

Compound | Dose.FC.LYZ.S ([1]; dose 0.08 uM) [log2 fold change] | Dose.FC.LYZ.S ([1]; dose 0.40 uM) [log2 fold change] | Dose.FC.LYZ.S ([1]; dose 2.00 uM) [log2 fold change] | Dose.FC.LYZ.S ([1]; dose 10.00 uM) [log2 fold change] | Dose.FC.LYZ.NS ([2]; dose 0.08 uM) [log2 fold change] | Z.LYZ.NS ([2]; dose 0.08 uM) | Dose.FC.LYZ.NS ([2]; dose 0.40 uM) [log2 fold change] | Z.LYZ.NS ([2]; dose 0.40 uM) | Dose.FC.LYZ.NS ([2]; dose 2.00 uM) [log2 fold change] | Z.LYZ.NS ([2]; dose 2.00 uM) | Dose.FC.LYZ.NS ([2]; dose 10.00 uM) [log2 fold change] | Z.LYZ.NS ([2]; dose 10.00 uM) | Dose.FC.CTG (ENR+CD organoids; dose 0.08 uM) [log2 fold change] | Z.CTG (ENR+CD organoids; dose 0.08 uM) | Dose.FC.CTG (ENR+CD organoids; dose 0.40 uM) [log2 fold change] | Z.CTG (ENR+CD organoids; dose 0.40 uM) | Dose.FC.CTG (ENR+CD organoids; dose 2.00 uM) [log2 fold change] | Z.CTG (ENR+CD organoids; dose 2.00 uM) | Dose.FC.CTG (ENR+CD organoids; dose 10.00 uM) [log2 fold change] | Z.CTG (ENR+CD organoids; dose 10.00 uM)
Cc1cc(Nc2ccc(NC(=O)c3ccc(Nc4ccnc5ccccc45)cc3)cc2)nc(N)n1 [SGI-1027] | 0.060 | 0.145 | 0.094 | 0.018 | 0.061 | 0.528 | 0.084 | 0.735 | 0.129 | 1.123 | −0.005 | −0.046 | 0.244 | 0.583 | 0.298 | 0.712 | 0.172 | 0.412 | 0.052 | 0.125
CN1CCC(CNc2ccc3ncc(-c4cccc(OC(F)(F)F)c4)n3n2)CC1 [SGI-1776free base] | 0.159 | 0.088 | 0.011 | −0.317 | 0.116 | 1.013 | 0.042 | 0.362 | 0.012 | 0.108 | −0.205 | −1.784 | 0.170 | 0.407 | 0.278 | 0.665 | 0.212 | 0.506 | −1.033 | −2.468
Oc1ccc(Nc2nc(-c3ccc(Cl)cc3)cs2)cc1 [SKI II] | 0.090 | 0.123 | 0.061 | −0.191 | 0.078 | 0.683 | 0.219 | 1.906 | 0.074 | 0.647 | −0.156 | −1.362 | 0.293 | 0.699 | 0.222 | 0.531 | 0.198 | 0.473 | −0.336 | −0.802
O=C1NC(=O)/C(=C/c2cccc(C(F)(F)F)c2)S1 [SMI-4a] | 0.036 | −0.063 | −0.042 | −0.134 | 0.022 | 0.188 | −0.060 | −0.524 | 0.032 | 0.283 | −0.074 | −0.643 | −0.153 | −0.366 | −0.317 | −0.758 | −0.332 | −0.793 | −0.327 | −0.781
